Data from article PMC11880984, “Altered O‐glycosylation of β1‐adrenergic receptor N‐terminal single‐nucleotide variants modulates receptor processing and functional activity” (The Febs Journal, 2024).

Target: T1, hβ1AR (human β1-adrenergic receptor), WT S49 R389 (Homo sapiens, UniProt P08588)
T1 construct: gene ADRB1; full-length WT (S49, R389) with HA signal peptide, N-terminal MYC tag and C-terminal FLAG tag (pFT-SMMF); N-terminal part partly cleaved at R31/L32 in cells
Experiment: radioligand saturation binding, membranes of stable HEK293i cells

T1 sequence (P08588 whole entry G389R): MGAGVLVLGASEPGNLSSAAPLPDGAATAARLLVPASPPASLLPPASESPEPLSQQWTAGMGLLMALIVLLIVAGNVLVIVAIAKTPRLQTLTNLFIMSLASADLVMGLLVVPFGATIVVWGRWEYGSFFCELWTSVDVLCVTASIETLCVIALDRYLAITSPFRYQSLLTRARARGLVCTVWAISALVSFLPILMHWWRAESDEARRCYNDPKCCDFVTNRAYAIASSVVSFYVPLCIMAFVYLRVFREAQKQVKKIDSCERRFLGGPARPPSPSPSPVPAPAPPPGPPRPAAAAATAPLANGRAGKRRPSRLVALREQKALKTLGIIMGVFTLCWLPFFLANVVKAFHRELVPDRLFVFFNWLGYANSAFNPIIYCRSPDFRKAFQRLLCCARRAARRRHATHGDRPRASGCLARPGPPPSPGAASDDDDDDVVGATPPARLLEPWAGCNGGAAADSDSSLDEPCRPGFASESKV

Kd: 0.42 ± 0.04 nM
SMILES: CCCc1ccccc1OCC(O)CNC(C)C (stereo not shown) [[^3H]dihydroalprenolol]
